Measurements published in PMC8153121, “N-Alkylation of Anthracycline Antibiotics by Natural Sesquiterpene Lactones as a Way to Obtain Antitumor Agents with Reduced Side Effects” (Biomedicines, 2021).
Like-named read-outs stand apart in the source and are kept apart here.

Key:
[1] = system: MCF7 (breast cancer); test: MTT cell viability test, MCF7; type: cell-based, Human; conditions: read-out: IC50, MCF7
Description: (§1) Human cell cultures of tumor origin (A549 (lung carcinoma), HCT116 (colon adenocarcinoma), MCF7 (breast cancer), RD (embryonic rhabdomyosarcoma)), and the line of non-transformed cells HEK293 (embryonic kidney) provided by the Laboratory of Tumor Cell Genetics at the N.N. Blokhin Russian Cancer Research Institute, as well as by the Institute of Cytology of the Russian Academy of Sciences, were grown in DMEM (Gibco, Scotland, UK) and MEM (Gibco, Scotland, UK) containing fetal calf serum (10% by volume) (ThermoFisher Scientific, Paisley, UK), L-glutamine (2 mM) (Gibco, Scotland, UK), and penicillin-streptomycin (1% by volume) (PanEco, Moscow, Russia).
(§2) Cellular viability was determined by the MTT test. […] After 24 h of incubation, various concentrations of the test compounds dissolved in DMSO (≤1%) were added to the cell cultures, the solvent was added to the control wells in an equal volume, and then the cells were cultured under the same conditions for 72 h. After the incubation time, MTT (3-(4,5-dimethylthiazol-2-yl)-2,5-diphenyltetrazolium bromide, 5 mg/mL) was added to each well, and the plates were further incubated for 2 h (until a characteristic color appeared). Then, the formazan granules were dissolved in DMSO.
(§3) Using a plate analyzer (Cytation3, BioTech Instruments Inc., USA), the optical density was determined at λ = 530 nm.

[2] = system: HEK293 (embryonic kidney); test: MTT cell viability test, non-transformed HEK293; type: cell-based, Human; conditions: read-out: IC50, HEK293
Description: as §1, §2, §3

[3] = system: rat heart mitochondria; test: Mitochondrial swelling; type: biochemical; conditions: rat heart mitochondria 0.5 mg/mL, compounds at 100 μM, Ca2+ 25 μM
Description: (§4) Rat heart mitochondria were isolated by differential centrifugation using ice-cold buffer containing KCl (120 mM) and HEPES (20 mM), pH = 7.4, and a trypsin inhibitor. The mitochondrial yield ranged from 5 to 10 mg/mL of protein in the heart sediment. Mitochondria were stored in plastic containers at 4 °C.
Mitochondrial swelling was recorded by the light transmission of the rat heart mitochondrial suspension at λ = 540 nm using a Victor 3 plate analyzer (Perkin Elmer, Germany). The swelling rate was estimated as △A540/min and was calculated as the tangent of the angle of the steepest dependence curve part △A540 versus time.

[4] = system: HeLa cervical tumor cell line; test: Glycolysis stress test (Seahorse, extracellular acidification rate); type: cell-based; conditions: HeLa cells, test substances 30 μM
Description: The ability of the studied compounds to modulate anaerobic glycolysis was investigated using the Agilent Seahorse XF96e Analyzer (Seahorse Bioscience, Billerica, MA, USA) according to the level of hydrogen proton production in the samples on the HeLa cervical tumor cell line by the glycolysis stress test.
HeLa cells in the exponential growth phase were plated into a 96-well cell culture microplate Seahorse (the density of the cell culture was 3 × 10^4/well). After 24 h, the rate of medium extracellular acidification by cells treated with the test compounds was recorded in real time during the sequential injection of modulators: glucose (10 mM) (Dia-M, Moscow, Russia), oligomycin (1 μM) (Sigma Aldrich, Saint Louis, USA), 2-fluoro-2-deoxy-D-glucose (25 mM) (Sigma Aldrich, Saint Louis, USA). This allowed us to estimate the glycolysis intensity in cells by three main parameters of glycolytic function: glycolysis by adding saturating amounts of glucose to the system, glycolytic capacity by the introduction of oligomycin, and glycolytic reserve by using the inhibitor of this glycolysis 2-fluoro-2-deoxy-D-glucose.

[5] = target: T1, cytochrome-c-oxidase complex of the mitochondrial respiratory chain (IV) (Rattus norvegicus, UniProt P00406+P05503+P05505); test: Respiratory chain complex IV, OCR of isolated rat heart mitochondria (Seahorse); type: biochemical; conditions: isolated rat heart mitochondria 10 μg/well, compounds at 30 μM
T1 construct: Rat heart mitochondria were isolated by differential centrifugation; from tissue; host or cells: rat heart mitochondria
T1 sequence (P00406 whole entry, other chains not shown): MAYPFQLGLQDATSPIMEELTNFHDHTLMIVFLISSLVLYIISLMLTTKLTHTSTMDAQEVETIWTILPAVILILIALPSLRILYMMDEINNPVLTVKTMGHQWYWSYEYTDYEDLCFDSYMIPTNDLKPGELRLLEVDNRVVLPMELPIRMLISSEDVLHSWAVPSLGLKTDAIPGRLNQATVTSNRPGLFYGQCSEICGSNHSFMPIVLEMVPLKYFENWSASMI
T1 sequence (P05505 whole entry, other chains not shown): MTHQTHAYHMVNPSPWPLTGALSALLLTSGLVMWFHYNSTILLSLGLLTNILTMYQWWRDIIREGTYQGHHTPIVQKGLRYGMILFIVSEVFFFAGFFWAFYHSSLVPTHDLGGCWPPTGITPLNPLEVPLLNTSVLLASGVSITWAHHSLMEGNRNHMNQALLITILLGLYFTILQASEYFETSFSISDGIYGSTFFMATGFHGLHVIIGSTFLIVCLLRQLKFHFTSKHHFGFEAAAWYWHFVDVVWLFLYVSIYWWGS
Description: as §4
(§5) The effect of the compounds on the functioning of the electron transport chain complexes was carried out using an Agilent Seahorse XF96e Analyzer (Seahorse Bioscience, Billerica, MA, USA) according to their ability to change the rate of oxygen uptake by isolated rat heart mitochondria (10 μg/well). The following modulators were used: activators of complex I of the electron transport chain, NADH dehydrogenase,—glutamate/malate; rotenone (2 μM) (Sigma Aldrich, Saint Louis, USA)—a tissue respiration blocker that stops the transfer of electrons from the reduced form of NADH to cytochrome b, was used as complex I inhibitor; potassium succinate ([…]) (Dia-M, Moscow, Russia), which is a substrate of complex II of the electron transport chain, made it possible to assess mitochondrial respiration mediated by succinate dehydrogenase; complex III (ubiquinol-cytochrome c-oxidoreductase) inhibitor—a blocker of cellular respiration antimycin A (Sigma Aldrich, Saint Louis, USA), as well as ascorbate/TMPD (0.5 μM) (Sigma Aldrich, Saint Louis, USA), allowed us to evaluate the cytochrome-c-oxidase mediated respiration of organelles.

[6] = system: RD (embryonic rhabdomyosarcoma); test: MTT cell viability test, RD; type: cell-based, Human; conditions: 72 h, read-out: IC50, RD
Description: as §1, §2, §3

[7] = system: A549 (lung carcinoma); test: MTT cell viability test, A549; type: cell-based, Human; conditions: read-out: IC50, A549
Description: as §1, §2, §3

[8] = system: HCT116 (colon adenocarcinoma); test: MTT cell viability test, HCT116; type: cell-based, Human; conditions: read-out: IC50, HCT116
Description: as §1, §2, §3

[9] = target: T2, complex II of the electron transport chain (Rattus norvegicus, UniProt P21913+Q641Z9+Q6PCT8+Q920L2); test: Respiratory chain complex II, OCR of isolated rat heart mitochondria (Seahorse); type: biochemical; conditions: isolated rat heart mitochondria 10 μg/well, compounds at 30 μM
T2 construct: Rat heart mitochondria were isolated by differential centrifugation; from tissue; host or cells: rat heart mitochondria
T2 sequence (Q920L2 35-656): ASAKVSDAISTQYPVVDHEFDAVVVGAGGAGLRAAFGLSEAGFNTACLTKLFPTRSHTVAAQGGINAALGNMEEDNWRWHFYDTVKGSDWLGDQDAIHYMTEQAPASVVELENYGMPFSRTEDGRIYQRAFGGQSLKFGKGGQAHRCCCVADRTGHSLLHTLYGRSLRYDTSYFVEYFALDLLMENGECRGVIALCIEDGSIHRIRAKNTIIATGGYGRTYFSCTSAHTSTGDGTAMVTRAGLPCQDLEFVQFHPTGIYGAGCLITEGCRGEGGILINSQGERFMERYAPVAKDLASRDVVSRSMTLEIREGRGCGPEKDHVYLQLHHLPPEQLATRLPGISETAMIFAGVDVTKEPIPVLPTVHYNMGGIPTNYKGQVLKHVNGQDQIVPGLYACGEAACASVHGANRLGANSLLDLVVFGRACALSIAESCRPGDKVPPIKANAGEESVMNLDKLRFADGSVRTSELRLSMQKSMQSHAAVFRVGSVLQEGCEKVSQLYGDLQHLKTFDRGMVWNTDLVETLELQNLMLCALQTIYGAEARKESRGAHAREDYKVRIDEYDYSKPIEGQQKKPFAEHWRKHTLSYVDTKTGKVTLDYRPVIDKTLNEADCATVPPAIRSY
T2 sequence (P21913 31-282): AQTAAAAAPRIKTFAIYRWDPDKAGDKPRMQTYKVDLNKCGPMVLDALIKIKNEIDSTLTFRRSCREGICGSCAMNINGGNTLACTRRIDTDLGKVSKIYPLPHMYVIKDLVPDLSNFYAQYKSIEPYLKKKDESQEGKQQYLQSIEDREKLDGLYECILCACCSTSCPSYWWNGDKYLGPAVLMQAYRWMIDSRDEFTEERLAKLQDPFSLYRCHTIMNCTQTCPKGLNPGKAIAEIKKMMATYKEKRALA
T2 sequence (Q641Z9 30-169 limits assumed): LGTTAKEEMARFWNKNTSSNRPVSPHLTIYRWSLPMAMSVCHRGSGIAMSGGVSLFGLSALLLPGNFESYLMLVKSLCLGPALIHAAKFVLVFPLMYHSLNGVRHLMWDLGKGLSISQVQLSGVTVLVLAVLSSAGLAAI
T2 sequence (Q6PCT8 57-159): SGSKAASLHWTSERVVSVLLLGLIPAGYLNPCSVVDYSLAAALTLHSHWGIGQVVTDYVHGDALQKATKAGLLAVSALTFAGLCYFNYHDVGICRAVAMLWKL
Description: as §4, §5

[10] = system: lipid peroxidation (LPO) of rat brain homogenate; test: Lipid peroxidation of rat brain homogenate (TBA test); type: biochemical; conditions: rat brain homogenate 2 mg/mL, Fe2+ 500 μM, compound 100 μM
Description: To obtain a brain homogenate, decapitation of rats anesthetized in advance with CO2 was performed using a guillotine. The brain was homogenized in a buffer containing KCl (120 mM) and HEPES (20 mM) (Gibco, Scotland, UK), pH = 7.4, at 4 °C and centrifuged at 1500 rpm to obtain a supernatant.
To study the effect of compounds on the process of lipid peroxidation (LPO) of rat brain homogenate, we used a modified version of the TBA test, which is based on the reaction of 2-thiobarbituric acid with the final LPO product—malonic dialdehyde (MDA). According to the experimental scheme, the well of the plate contained the studied compounds (100 μM), rat brain homogenate (2 mg/mL), as well as 500 μM ferrous iron ions (FeSO4 × […]). After 30 min of incubation at 37 °C, TBA reagent was added to all samples, incubated for 90 min at 90 °C, and centrifuged at 6000 rpm for 15 min. The optical density of the selected supernatant was measured on a Victor 3 plate analyzer (Perkin Elmer, Germany […]) at λ = 540 nm.

[11] = MTT, 72 h, non-transformed cells

SMILES	IC50 ([1]; MTT, 72 h) [µM]	IC50 [2, 11] [µM]	Mitochondrial Swelling, % of Ca2+-Induced Swelling [3]	Effect on glycolytic function (extracellular acidification rate) [4]	Work of Respiratory Chain Complexes, % Decrease in OCR of Control, IV [5]	IC50 ([6]; MTT) [µM]	IC50 ([7]; MTT, 72 h) [µM]	IC50 ([8]; MTT, 72 h) [µM]	Work of Respiratory Chain Complexes, % Decrease in OCR of Control, II [9]	IC50 ([1]; Homo sapiens, MCF7, 72 h) [µM]	IC50 ([2]; Homo sapiens, HEK293, 72 h) [µM]	melting point [°C]	IC50 ([6]; Homo sapiens) [µM]	IC50 ([7]; Homo sapiens, A549, 72 h) [µM]	IC50 ([8]; Homo sapiens, HCT-116, 72 h) [µM]	% of MDA relative to control [10] [%]	also measured
COc1cccc2c1C(=O)c1c(O)c3c(c(O)c1C2=O)C[C@@](O)(C(C)=O)C[C@@H]3O[C@H]1C[C@H](NC[C@H]2C(=O)O[C@@H]3C[C@@]4(C)CCCC(C)=C4C[C@@H]32)[C@H](O)[C@H](C)O1 [Compound 3b]	1.24 ± 0.23	6.37 ± 0.24	26.45 ± 7.14%	most pronounced ability to reduce the acidification rate of the medium by cells	— (“—” indicates activity absence for compounds (≤10%) in a particular test)	0.59 ± 0.05	1.42 ± 0.05	1.01 ± 0.01	–	–	–	–	–	–	–	–	–
COc1cccc2c1C(=O)c1c(O)c3c(c(O)c1C2=O)CC(O)(C(=O)CO)CC3OC1CC(NCC2C(=O)OC3CC4(C)CCCC(C)C45OC5C32)C(O)C(C)O1 (stereo not shown) [Compound 5a]	3.03 ± 0.07	4.5 ± 0.32	— (“—” indicates activity absence for compounds (≤10%) in a particular test)	most pronounced ability to reduce the acidification rate of the medium by cells	23.99 ± 4.41%	2.47 ± 0.07	4.52 ± 0.57	2.52 ± 0.02	— (“—” indicates activity absence for compounds (≤10%) in a particular test)	–	–	–	–	–	–	–	–
COc1cccc2c1C(=O)c1c(O)c3c(c(O)c1C2=O)C[C@@](O)(C(C)=O)C[C@@H]3O[C@H]1C[C@H](NC[C@H]2C(=O)O[C@@H]3CC4=CCC[C@H](C)[C@@]4(C)[C@@H](O)[C@@H]32)[C@H](O)[C@H](C)O1 [Compound 7b, (8S,10S)-8-Acetyl-6,8,11-trihydroxy-10-(((2R,4S,5S,6S)-5-hydroxy-4-((((3S,3aS,4S,4aR,5S,9aR)-4-hydroxy-4a,5-dimethyl-2-oxo-2,3,3a,4,4a,5,6,7,9,9a-decahydronaphtho[2,3-b]furan-3-yl)methyl)amino)-6-methyltetrahydro-2H-pyran-2-yl)oxy)-1-methoxy-7,8,9,10-tetrahydrotetracene-5,12-dione]	–	–	— (“—” indicates activity absence for compounds (≤10%) in a particular test)	–	46.08 ± 3.42%	–	–	–	21.04 ± 4.22%	1.9 ± 0.07	6.42 ± 0.21	155 to 162	1.95 ± 0.01	2.01 ± 0.09	0.2 ± 0.01	–	–
COc1cccc2c1C(=O)c1c(O)c3c(c(O)c1C2=O)C[C@@](O)(C(=O)CO)C[C@@H]3O[C@H]1C[C@H](NC[C@H]2C(=O)O[C@@H]3C[C@@]4(C)CCC=C(C)C4=C[C@@H]32)[C@H](O)[C@H](C)O1 [Compound 8a, (8S,10S)-10-(((2R,4S,5S,6S)-4-((((3S,3aR,8aR,9aR)-5,8a-Dimethyl-2-oxo-2,3,3a,7,8,8a,9,9a-octahydronaphtho[2,3-b]furan-3-yl)methyl)amino)-5-hydroxy-6-methyltetrahydro-2H-pyran-2-yl)oxy)-6,8,11-trihydroxy-8-(2-hydroxyacetyl)-1-methoxy-7,8,9,10-tetrahydrotetracene-5,12-dione]	–	–	47.84 ± 4.99%	–	25.95 ± 4.43%	–	–	–	27.58 ± 4.30%	2.34 ± 0.01	16.4 ± 1.07	166 to 170	1.03 ± 0.02	1.87 ± 0.07	0.43 ± 0.02	–	–
COc1cccc2c1C(=O)c1c(O)c3c(c(O)c1C2=O)C[C@@](O)(C(=O)CO)C[C@@H]3O[C@H]1C[C@H](N)[C@H](O)[C@H](C)O1 [a, doxorubicin, reference compound]	–	–	116.20 ± 10.98%	–	37.73 ± 0.34%	–	–	–	70.54 ± 0.64%	–	–	–	–	–	–	236.68 ± 13.06	IC50 ([1]; Homo sapiens, MCF7, 72 h, MTT, 72 h): 0.46 ± 0.03 µM; IC50 ([2]; Homo sapiens, HEK293, 72 h, MTT, 72 h, non-transformed cells): 6.78 ± 0.76 µM; IC50 ([6]; Homo sapiens, MTT): 0.29 ± 0.02 µM; IC50 ([7]; Homo sapiens, A549, 72 h, MTT, 72 h): 0.38 ± 0.02 µM; IC50 ([8]; Homo sapiens, HCT-116, 72 h, MTT, 72 h): 0.14 ± 0.01 µM; Work of Respiratory Chain Complexes, % Decrease in OCR of Control, II ([9]; listed as doxorubicin): more than 70%
COc1cccc2c1C(=O)c1c(O)c3c(c(O)c1C2=O)C[C@@](O)(C(C)=O)C[C@@H]3O[C@H]1C[C@H](N)[C@H](O)[C@H](C)O1 [b, daunorubicin, reference compound]	–	–	40.98 ± 3.86%	–	— (“—” indicates activity absence for compounds (≤10%) in a particular test)	–	–	–	72.12 ± 0.96%	0.84 ± 0.17	12.3 ± 1.17	–	0.63 ± 0.03	0.33 ± 0.01	0.12	226.05 ± 6.60	Work of Respiratory Chain Complexes, % Decrease in OCR of Control, II ([9]; listed as daunorubicin): more than 70%
